Test results published in patent US12410220B2, “Modulation of mammalian cell lineage by synthetic immodulins” (priority 2021, dated 2025).
Marks after values point to notes of the source that are not given here. Peptide text beside a SMILES is read from it.

Experiments:
[1] = Experiment 4D binding to FITC-labelled heparin; details: biotinylated peptide 1 ug/well; 1 ug FITC-labelled heparin, 90 minutes
Summary of the method: (§1)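 Biotinylated peptides (1 ug/well) bound to streptavidin plates for 60 min at room temperature, then 1 ug FITC-labelled heparin or hyaluronic acid in PBS added for 90 min at room temperature, in quadruplicate. After washes, fluorescence read at 488/525 nm and counts normalized to immX3 peptide binding = 100.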

[2] = Ferric iron-binding assay of biotinylated immodulin peptides; details: N-terminally biotinylated peptide, 400 ng per well, 60 min room temperature; immX3AVD = 100
Summary of the method: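 N-terminally biotinylated peptides (400 ng/well) were tested for ferric iron binding in two formats: streptavidin-A488 complexes on Fe3+-charged NTA plates, or streptavidin-captured peptide probed with FITC-NTA·Fe3+. Each step was 60 min at room temperature with fluorescence read at 525 nm. Values are normalized to immX3AVD control (100) and averaged across both protocols.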

[3] = target: T1, AA111-228 DNA-binding domain of RXR-alpha (RXRa-DBD) (Homo sapiens, UniProt P19793); assay: Experiment 4A binding to RXRa-DBD; details: 1 ug/well RXRa-DBD; 800 ng/well SA488-labelled peptide, 60 min; background subtracted
T1 construct: purchased Abcam, Cambridge, MA
T1 sequence (P19793 111-228): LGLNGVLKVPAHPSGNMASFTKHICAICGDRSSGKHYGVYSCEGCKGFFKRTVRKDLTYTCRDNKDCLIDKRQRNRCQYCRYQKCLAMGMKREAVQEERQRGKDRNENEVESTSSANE
Method: Experiment 4A. Binding of immodulin peptides to AA111-228 DNA-binding domain of RXR-alpha (RXRa-DBD). 1 ug/well recombinant RXRa-DBD (Abcam, Cambridge, MA) was adsorbed to wells of a 96-well plate for 60 minutes at room temperature, then blocked with 200 uL 1% bovine serum albumin (BSA) in PBS buffer overnight. Plate was washed and 800 ng/well Streptavidin-Alexa 488 conjugate (SA488)-labelled immX peptide was added. The plate was incubated for 60 min at room temperature, washed and counted in a standard fluorometer (excitation/emission 485/525 nm). Background (buffer alone) was subtracted.

[4] = target: T2, RXR-alpha (Homo sapiens, UniProt P19793); assay: Experiment 4B binding to full length RXR-alpha; details: 400 ng/well protein; 800 ng/well SA488-labelled peptide, 2 hours
T2 construct: 400 ng/well full length RXR-alpha, RXR-beta, RXR-gamma or PPAR-gamma; purchased Abcam, Cambridge, MA
T2 sequence (P19793 1-462): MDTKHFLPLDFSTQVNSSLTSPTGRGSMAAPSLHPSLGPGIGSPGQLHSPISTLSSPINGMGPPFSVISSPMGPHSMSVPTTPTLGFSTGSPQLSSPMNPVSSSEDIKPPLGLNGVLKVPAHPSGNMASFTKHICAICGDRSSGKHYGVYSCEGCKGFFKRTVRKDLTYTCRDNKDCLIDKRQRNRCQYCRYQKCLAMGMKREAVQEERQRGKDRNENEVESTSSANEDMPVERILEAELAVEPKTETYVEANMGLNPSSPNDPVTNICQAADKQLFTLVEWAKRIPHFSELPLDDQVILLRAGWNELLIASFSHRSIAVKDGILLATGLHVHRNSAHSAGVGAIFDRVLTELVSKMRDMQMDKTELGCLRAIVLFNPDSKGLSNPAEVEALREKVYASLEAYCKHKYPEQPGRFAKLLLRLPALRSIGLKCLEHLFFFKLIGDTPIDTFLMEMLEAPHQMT
Method: (§2) Experiment 4B. Binding of immodulin peptides to RXR isoforms and domains. 100 ng/well recombinant human RXRa-DBD or RXRa-LBD, or 400 ng/well full length RXR-alpha, RXR-beta, RXR-gamma or PPAR-gamma (Abcam, Cambridge, MA) was adsorbed to wells of a 96-well plate for 60 minutes at room temperature, then blocked with 200 uL 1% BSA in PBS buffer overnight. The plate was washed with PBS and 800 ng/well Streptavidin-Alexa 488 conjugate (SA488)-labelled peptide was added. The plate was incubated for 2 hours at room temperature, washed and counted in a fluorometer (excitation/emission 485/525 nm). Significant binding above background is also shown (**p<0.05). […] When tested against domains of RXR-alpha, these peptides bind the DNA-binding domain (DBD) better than the ligand-binding domain (LBD).

[5] = Experiment 4D binding to FITC-labelled hyaluronic acid; details: biotinylated peptide 1 ug/well; 1 ug FITC-labelled hyaluronic acid, 90 minutes
Summary of the method: as §1

[6] = target: T3, RXR-alpha DBD (Homo sapiens, UniProt P19793); assay: Experiment 4B binding to RXR-alpha DBD; details: 100 ng/well protein; 800 ng/well SA488-labelled peptide, 2 hours
T3 construct: purchased Abcam, Cambridge, MA
T3 sequence (P19793 111-228): T1 sequence (P19793 111-228)
Method: as §2

[7] = target: T4, RXR-beta (Homo sapiens, UniProt P28702); assay: Experiment 4B binding to full length RXR-beta; details: 400 ng/well protein; 800 ng/well SA488-labelled peptide, 2 hours
T4 construct: 400 ng/well full length RXR-alpha, RXR-beta, RXR-gamma or PPAR-gamma; purchased Abcam, Cambridge, MA
T4 sequence (P28702 1-533): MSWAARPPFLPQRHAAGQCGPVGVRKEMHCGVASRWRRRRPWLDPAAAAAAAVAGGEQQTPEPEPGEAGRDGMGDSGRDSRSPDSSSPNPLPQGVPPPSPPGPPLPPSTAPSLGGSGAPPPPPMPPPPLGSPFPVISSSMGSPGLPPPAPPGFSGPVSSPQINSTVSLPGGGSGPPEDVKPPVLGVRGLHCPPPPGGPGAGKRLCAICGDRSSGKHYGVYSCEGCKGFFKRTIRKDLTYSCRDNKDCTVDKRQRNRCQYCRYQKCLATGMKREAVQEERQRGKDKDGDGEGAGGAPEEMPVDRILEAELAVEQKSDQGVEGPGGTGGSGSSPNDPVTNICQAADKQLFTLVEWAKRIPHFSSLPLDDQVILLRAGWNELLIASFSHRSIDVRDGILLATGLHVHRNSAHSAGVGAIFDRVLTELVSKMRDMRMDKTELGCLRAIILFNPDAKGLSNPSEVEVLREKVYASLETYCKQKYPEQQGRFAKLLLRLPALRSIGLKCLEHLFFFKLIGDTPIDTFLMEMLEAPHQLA
Method: as §2

With `CC[C@H](C)[C@H](NC(=O)CNC(=O)[C@H](CCCNC(=N)N)NC(=O)[C@H](CCCCN)NC(=O)[C@H](CCCNC(=N)N)NC(=O)CNC(=O)[C@H](CCCNC(=N)N)NC(=O)[C@H](CO)NC(=O)[C@@H]1CCCN1C(=O)[C@H](CCCCN)NC(=O)[C@H](CS)NC(=O)[C@H](CCC(N)=O)NC(=O)[C@H](CCCCN)NC(=O)[C@H](CCCNC(=N)N)NC(=O)[C@H](CCCCN)NC(=O)[C@H](Cc1ccc(O)cc1)NC(=O)[C@H](Cc1ccccc1)NC(=O)CNC(=O)[C@H](CCCCN)NC(=O)[C@@H](N)CCCNC(=N)N)C(=O)N[C@@H](CS)C(=O)N[C@@H](Cc1c[nH]c2ccccc12)C(=O)O` [imm5] (H-RKGFYKRKQCKPSRGRKRGICW-OH; N-terminus and C-terminus assumed) the “Heparin binding, counts normalized for immX3 peptide binding=100” value (shortened to “Heparin binding, counts normalized”) [1] was 95.1 ± 25.7, the “Ferric iron binding, fluorescence standardized to immX3AVD control peptide (100), Avg ± SD” value (“Ferric iron binding … Avg ± SD” for short) [2] was 71.6 ± 6.6** and the “Fluorescence, binding to RXRa-DBD” value [3] was 6,802±336. The “Binding to RXR-alpha relative to imm3 binding to RXR-gamma (=100)” value [4] was 17.2 ± 0.3**, the “Hyaluronate binding, counts normalized for immX3 peptide binding=100” value (from here on “Hyaluronate binding, counts normalized”) [5] was 60.0 ± 8.6** and the “Binding to RXR-alpha DBD relative to imm3 binding (=100)” value [6] was 22.7 ± 3.1**. For the same compound, the “Binding to RXR-beta relative to imm3 binding (=100)” value [7] was 4.0 ± 0.8.

With `N=C(N)NCCC[C@H](NC(=O)CNC(=O)[C@H](CCCCN)NC(=O)[C@H](CO)NC(=O)[C@@H]1CCCN1C(=O)[C@H](CCCNC(=N)N)NC(=O)[C@H](CS)NC(=O)[C@H](CCC(N)=O)NC(=O)[C@H](CCCCN)NC(=O)[C@H](CCCCN)NC(=O)[C@H](CCCCN)NC(=O)[C@H](Cc1ccc(O)cc1)NC(=O)[C@H](Cc1ccccc1)NC(=O)CNC(=O)[C@H](CCCCN)NC(=O)[C@@H](N)CCCCN)C(=O)N[C@@H](CCCCN)C(=O)N[C@@H](CCCNC(=N)N)C(=O)NCC(=O)N[C@@H](Cc1ccccc1)C(=O)N[C@@H](CS)C(=O)N[C@@H](Cc1c[nH]c2ccccc12)C(=O)O` [imm3] (H-KKGFYKKKQCRPSKGRKRGFCW-OH; N-terminus and C-terminus assumed) the “Heparin binding, counts normalized” value [1] was 104.2 ± 22.0, the “Ferric iron binding … Avg ± SD” value [2] was 66.7 ± 4.7** and the “Fluorescence, binding to RXRa-DBD” value [3] was 6,572±129. For the same compound, the “Binding to RXR-alpha relative to imm3 binding to RXR-gamma (=100)” value [4] was 11.2 ± 1.0**, the “Hyaluronate binding, counts normalized” value [5] was 57.2 ± 5.7** and the “Binding to RXR-alpha DBD relative to imm3 binding (=100)” value [6] was 22.2 ± 2.4**. The “Binding to RXR-beta relative to imm3 binding (=100)” value [7] was 2.9 ± 1.1.

In the case of `CC(C)C[C@H](NC(=O)[C@H](C)NC(=O)[C@@H]1CCCN1C(=O)[C@H](Cc1c[nH]cn1)NC(=O)[C@H](CS)NC(=O)[C@H](CCC(N)=O)NC(=O)[C@H](CCCCN)NC(=O)[C@@H]1CCCN1C(=O)[C@H](Cc1c[nH]cn1)NC(=O)[C@H](Cc1ccccc1)NC(=O)[C@H](CC(N)=O)NC(=O)CNC(=O)[C@H](CC(N)=O)NC(=O)[C@@H](N)CCCNC(=N)N)C(=O)N[C@@H](CC(=O)O)C(=O)NCC(=O)N[C@@H](CCC(N)=O)C(=O)N[C@@H](CCCNC(=N)N)C(=O)NCC(=O)N[C@@H](CCCCN)C(=O)N[C@@H](CS)C(=O)N[C@@H](Cc1c[nH]c2ccccc12)C(=O)O` [imm4] (H-RNGNFHPKQCHPALDGQRGKCW-OH; N-terminus and C-terminus assumed), the “Heparin binding, counts normalized” value [1] is reported as 6.8 ± 24.1, the “Ferric iron binding … Avg ± SD” value [2] is reported as 3.3 ± 1.5** and the “Fluorescence, binding to RXRa-DBD” value [3] is reported as 27±31. For the same compound, the “Binding to RXR-alpha relative to imm3 binding to RXR-gamma (=100)” value [4] was 3.6 ± 1.3, the “Hyaluronate binding, counts normalized” value [5] was 14.6 ± 22.6 and the “Binding to RXR-alpha DBD relative to imm3 binding (=100)” value [6] was 3.2 ± 2.0. For the same compound, the “Binding to RXR-beta relative to imm3 binding (=100)” value [7] was 0.3 ± 1.2.

For `N=C(N)NCCC[C@H](NC(=O)[C@H](CCCNC(=N)N)NC(=O)[C@H](CCC(N)=O)NC(=O)CNC(=O)[C@H](CCC(N)=O)NC(=O)[C@H](CO)NC(=O)[C@H](CO)NC(=O)[C@H](CCCNC(=N)N)NC(=O)[C@H](CS)NC(=O)[C@H](CCC(N)=O)NC(=O)[C@H](CCCNC(=N)N)NC(=O)[C@H](CCCCN)NC(=O)[C@H](CCCNC(=N)N)NC(=O)[C@H](Cc1ccc(O)cc1)NC(=O)[C@H](Cc1ccccc1)NC(=O)CNC(=O)[C@H](CCCNC(=N)N)NC(=O)[C@@H](N)Cc1c[nH]cn1)C(=O)NCC(=O)N1CCC[C@H]1C(=O)N[C@@H](CS)C(=O)N[C@@H](Cc1c[nH]c2ccccc12)C(=O)O` [imm6] (H-HRGFYRKRQCRSSQGQRRGPCW-OH; N-terminus and C-terminus assumed), the “Heparin binding, counts normalized” value [1] was 97.2 ± 17.3, the “Ferric iron binding … Avg ± SD” value [2] was 65.9 ± 4.9** and the “Fluorescence, binding to RXRa-DBD” value [3] was 587±192. The “Binding to RXR-alpha relative to imm3 binding to RXR-gamma (=100)” value [4] was 12.9 ± 0.5**, the “Hyaluronate binding, counts normalized” value [5] was 44.9 ± 14.1** and the “Binding to RXR-alpha DBD relative to imm3 binding (=100)” value [6] was 22.9 ± 2.1**. The “Binding to RXR-beta relative to imm3 binding (=100)” value [7] was 4.7 ± 0.4.
